Experimental data reported in doi:10.1101/252742v1 (bioRxiv, 2018).

Key:
[1] = Stability of peptide incubated in human plasma; format: in vitro ADME; conditions: incubated in PBS or human plasma for up to 72h at 37°C, then tested for activity
NOKs and MCF10A cells = assay: DNA synthesis by EdU incorporation, non-tumorigenic cells; format: cell-based, human; conditions: 30 μM peptide for 1, 3 or 6 hr (up to 16 hr), then EdU 45 min
UM-SCC47 cells [2] = assay: Cell cycle analysis by flow cytometry; format: cell-based, human; conditions: UM-SCC47, 30 uM peptide
HaCaT keratinocytes = assay: Cell cycle analysis by flow cytometry; format: cell-based, human; conditions: 30 uM peptide, 16 hr
[3] = test system: normal oral keratinocytes (NOKs), human tonsillar epithelial cells (HTEs), HaCaT keratinocytes and MCF10A cells; assay: Cell proliferation assay; format: cell-based; conditions: 0, 3, 10 or 30 μM peptide, four-day treatment; cell number as % of untreated
UM-SCC47 cells [4] = format: cell-based, human; conditions: UM-SCC47, 30 μM peptide for 3 hr, EdU for the last 45 min
Chk1, Chk2, H2AX = assay: DNA damage response effector activation by western blot; format: cell-based, human; conditions: UM-SCC47 or MDA-MB-231 cells, 30 μM peptide up to 6 hr
PCNA = assay: DNA-bound PCNA staining on chromatin; format: cell-based, human; conditions: UM-SCC47, detergent-extracted after 3 hr treatment with 30 μM peptide
[5] = Plasma pharmacokinetics in mice; format: in vivo; conditions: single intravenous (i.v.) injection of 0.597 mg/kg
p38MAPK = p38MAPK activation; format: cell-based, human; conditions: NOKs, 30 μM peptide, 15 min to 16 hr
c-Abl = c-Abl activity; format: cell-based, human; conditions: UM-SCC47, 30 μM peptide for 3 hr

## SSTNEGFR
[1]
  stability in human plasma: remarkably stable
NOKs and MCF10A cells
  DNA synthesis (EdU incorporation): no inhibition of DNA synthesis
UM-SCC47 cells [2]; 3 hr
  cells in G1: 53.1%
  cells in G2: 0.0%
  cells in S: 46.9%
UM-SCC47 cells [2]; 16 hr
  cells in G1: 48.5%
  cells in G2: 1.7%
  cells in S: 49.8%
HaCaT keratinocytes
  cells in G1: 36.6%
  cells in S: 57.0%
[3]
  growth of non-tumorigenic cells: not affected
UM-SCC47 cells [4]
  EdU incorporation: near complete loss of EdU incorporation
Chk1, Chk2, H2AX
  activation of DNA damage response effectors (Chk1, Chk2, γH2AX): fails to activate Chk1 or Chk2
PCNA
  PCNA retention on chromatin: loss of PCNA
[5]
  half-life in plasma: ~ 42 hr
p38MAPK
  p38MAPK activation in non-transformed cells: fail to activate p38MAPK
c-Abl
  c-Abl activity (pY245, pY412): inactivates c-Abl
